For assay [1], the target named is Homeodomain-interacting protein kinase 2 (Homo sapiens, UniProt Q9H2X6). In kind it is functional.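 Note: measured within a kinome-wide kinase profiling panel, HIPK2 being one panel member.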
Assay [2] has as its target Dual specificity protein kinase CLK4 (Homo sapiens, UniProt Q9HAZ1). In kind it is functional.
Assay [3] concerns the target Mitogen-activated protein kinase kinase kinase kinase 4 (Homo sapiens, UniProt O95819). It counts as functional.
In assay [4] the target is Glycogen synthase kinase-3 beta (Homo sapiens, UniProt P49841). In kind it is functional.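 Note: value comes from a broad kinome profiling panel, with GSK3B as the panel member.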
Sequence of Glycogen synthase kinase-3 beta (P49841 whole entry): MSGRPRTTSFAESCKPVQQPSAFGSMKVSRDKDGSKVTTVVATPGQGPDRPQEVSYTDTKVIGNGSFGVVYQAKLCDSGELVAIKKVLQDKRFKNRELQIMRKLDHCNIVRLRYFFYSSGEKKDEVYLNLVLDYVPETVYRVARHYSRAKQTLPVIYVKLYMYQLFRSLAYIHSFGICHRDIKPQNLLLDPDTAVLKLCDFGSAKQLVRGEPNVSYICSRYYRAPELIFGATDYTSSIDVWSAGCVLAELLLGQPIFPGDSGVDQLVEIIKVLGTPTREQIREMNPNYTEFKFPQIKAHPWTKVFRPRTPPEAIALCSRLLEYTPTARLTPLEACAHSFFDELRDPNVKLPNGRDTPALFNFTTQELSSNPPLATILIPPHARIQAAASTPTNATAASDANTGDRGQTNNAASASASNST
The target of assay [5] is Interleukin-1 receptor-associated kinase 4 (Homo sapiens, UniProt Q9NWZ3). In kind it is functional.
Sequence of Interleukin-1 receptor-associated kinase 4 (Q9NWZ3 whole entry): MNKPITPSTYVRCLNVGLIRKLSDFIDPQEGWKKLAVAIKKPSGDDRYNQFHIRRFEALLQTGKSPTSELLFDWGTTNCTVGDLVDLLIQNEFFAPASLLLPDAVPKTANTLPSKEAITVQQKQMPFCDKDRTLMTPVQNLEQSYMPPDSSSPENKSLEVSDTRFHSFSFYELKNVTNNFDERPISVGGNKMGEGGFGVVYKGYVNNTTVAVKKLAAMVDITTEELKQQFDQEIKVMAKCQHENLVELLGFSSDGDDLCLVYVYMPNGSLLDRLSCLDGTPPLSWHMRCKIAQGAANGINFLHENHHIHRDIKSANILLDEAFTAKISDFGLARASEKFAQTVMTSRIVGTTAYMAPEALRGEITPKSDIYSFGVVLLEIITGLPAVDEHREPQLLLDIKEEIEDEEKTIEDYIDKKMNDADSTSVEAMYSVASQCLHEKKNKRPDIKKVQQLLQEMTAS
Assay [6] concerns the target Cyclin-dependent kinase 2 (Homo sapiens, UniProt P24941). In kind it is functional.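 Note: CDK2 measured as one member of a broad kinome profiling panel.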
The target in assay [7] is Serine/threonine-protein kinase pim-1 (Homo sapiens, UniProt P11309). In kind it is functional.
Sequence of Serine/threonine-protein kinase pim-1 (P11309 whole entry): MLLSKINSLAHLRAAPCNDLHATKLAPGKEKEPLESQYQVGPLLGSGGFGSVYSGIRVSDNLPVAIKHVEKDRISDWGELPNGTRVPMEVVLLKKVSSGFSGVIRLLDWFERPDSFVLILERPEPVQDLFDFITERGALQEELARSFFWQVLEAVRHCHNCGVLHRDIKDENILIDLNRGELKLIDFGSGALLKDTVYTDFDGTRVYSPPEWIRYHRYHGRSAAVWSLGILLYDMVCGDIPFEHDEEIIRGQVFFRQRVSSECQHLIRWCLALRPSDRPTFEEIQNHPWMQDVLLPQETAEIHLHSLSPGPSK
Assay [8] deals with cAMP-dependent protein kinase catalytic subunit alpha (Homo sapiens, UniProt P17612). In kind it is functional.
Assay [9] deals with Cell division cycle 7-related protein kinase (Homo sapiens, UniProt O00311). In kind it is functional.
Sequence of Cell division cycle 7-related protein kinase (O00311 whole entry): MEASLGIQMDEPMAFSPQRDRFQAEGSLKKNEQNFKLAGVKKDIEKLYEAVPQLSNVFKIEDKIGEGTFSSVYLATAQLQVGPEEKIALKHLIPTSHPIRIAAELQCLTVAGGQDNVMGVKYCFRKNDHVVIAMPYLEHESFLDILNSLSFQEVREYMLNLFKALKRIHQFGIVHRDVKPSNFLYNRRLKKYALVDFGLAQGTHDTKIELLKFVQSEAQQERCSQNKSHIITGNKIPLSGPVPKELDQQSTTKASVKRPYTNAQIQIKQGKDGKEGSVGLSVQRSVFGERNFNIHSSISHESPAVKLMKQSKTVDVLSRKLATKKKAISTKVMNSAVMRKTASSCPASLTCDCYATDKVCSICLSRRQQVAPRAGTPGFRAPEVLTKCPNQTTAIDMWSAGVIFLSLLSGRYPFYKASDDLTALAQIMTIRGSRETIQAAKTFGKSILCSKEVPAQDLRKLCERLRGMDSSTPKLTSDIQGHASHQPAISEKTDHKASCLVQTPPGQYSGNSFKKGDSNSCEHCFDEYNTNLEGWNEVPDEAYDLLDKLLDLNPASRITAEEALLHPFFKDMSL
For assay [10], the target named is T1, High affinity choline transporter 1 (Homo sapiens, UniProt Q9GZV3).
T1 sequence (Q9GZV3 whole entry): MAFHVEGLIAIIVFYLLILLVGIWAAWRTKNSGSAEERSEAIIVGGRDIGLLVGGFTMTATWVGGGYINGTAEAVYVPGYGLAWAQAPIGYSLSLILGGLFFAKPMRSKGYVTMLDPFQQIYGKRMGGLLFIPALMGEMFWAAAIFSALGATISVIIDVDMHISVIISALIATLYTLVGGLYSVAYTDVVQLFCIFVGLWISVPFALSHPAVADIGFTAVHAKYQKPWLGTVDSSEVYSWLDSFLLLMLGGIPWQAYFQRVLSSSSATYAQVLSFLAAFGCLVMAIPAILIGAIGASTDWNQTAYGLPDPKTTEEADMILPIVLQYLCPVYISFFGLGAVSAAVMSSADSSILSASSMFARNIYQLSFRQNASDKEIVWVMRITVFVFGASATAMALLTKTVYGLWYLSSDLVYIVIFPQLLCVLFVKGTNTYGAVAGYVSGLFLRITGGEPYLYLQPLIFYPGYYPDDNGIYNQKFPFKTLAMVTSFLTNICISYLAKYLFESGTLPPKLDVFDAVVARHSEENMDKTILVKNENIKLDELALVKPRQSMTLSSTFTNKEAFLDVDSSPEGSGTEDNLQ
Kind of assay: human choline transporter potentiators, potency – cell-based, 10-point CRC, membrane potential dye, dose response (AID 602376). In kind it is functional.

For assay [11], the target named is T2, Caspase-3 (Homo sapiens, UniProt P42574).
T2 sequence (P42574 whole entry): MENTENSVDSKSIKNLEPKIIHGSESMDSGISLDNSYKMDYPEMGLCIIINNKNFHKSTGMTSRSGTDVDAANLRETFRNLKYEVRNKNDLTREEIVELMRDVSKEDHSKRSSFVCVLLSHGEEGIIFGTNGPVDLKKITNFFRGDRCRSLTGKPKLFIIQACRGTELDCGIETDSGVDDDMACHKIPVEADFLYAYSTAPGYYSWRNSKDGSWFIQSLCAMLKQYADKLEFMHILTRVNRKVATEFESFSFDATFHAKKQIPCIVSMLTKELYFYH
The experiment in a line: inhibition of recombinant caspase-3 activity – biochemical, luminescence, set 2, selectivity assay for SENP protease inhibitor project, SAR follow-up (AID 588599). It counts as functional.

Assay [12] concerns the target T3, Sentrin-specific protease 6 (Homo sapiens, UniProt Q9GZR1).
T3 sequence (Q9GZR1 whole entry): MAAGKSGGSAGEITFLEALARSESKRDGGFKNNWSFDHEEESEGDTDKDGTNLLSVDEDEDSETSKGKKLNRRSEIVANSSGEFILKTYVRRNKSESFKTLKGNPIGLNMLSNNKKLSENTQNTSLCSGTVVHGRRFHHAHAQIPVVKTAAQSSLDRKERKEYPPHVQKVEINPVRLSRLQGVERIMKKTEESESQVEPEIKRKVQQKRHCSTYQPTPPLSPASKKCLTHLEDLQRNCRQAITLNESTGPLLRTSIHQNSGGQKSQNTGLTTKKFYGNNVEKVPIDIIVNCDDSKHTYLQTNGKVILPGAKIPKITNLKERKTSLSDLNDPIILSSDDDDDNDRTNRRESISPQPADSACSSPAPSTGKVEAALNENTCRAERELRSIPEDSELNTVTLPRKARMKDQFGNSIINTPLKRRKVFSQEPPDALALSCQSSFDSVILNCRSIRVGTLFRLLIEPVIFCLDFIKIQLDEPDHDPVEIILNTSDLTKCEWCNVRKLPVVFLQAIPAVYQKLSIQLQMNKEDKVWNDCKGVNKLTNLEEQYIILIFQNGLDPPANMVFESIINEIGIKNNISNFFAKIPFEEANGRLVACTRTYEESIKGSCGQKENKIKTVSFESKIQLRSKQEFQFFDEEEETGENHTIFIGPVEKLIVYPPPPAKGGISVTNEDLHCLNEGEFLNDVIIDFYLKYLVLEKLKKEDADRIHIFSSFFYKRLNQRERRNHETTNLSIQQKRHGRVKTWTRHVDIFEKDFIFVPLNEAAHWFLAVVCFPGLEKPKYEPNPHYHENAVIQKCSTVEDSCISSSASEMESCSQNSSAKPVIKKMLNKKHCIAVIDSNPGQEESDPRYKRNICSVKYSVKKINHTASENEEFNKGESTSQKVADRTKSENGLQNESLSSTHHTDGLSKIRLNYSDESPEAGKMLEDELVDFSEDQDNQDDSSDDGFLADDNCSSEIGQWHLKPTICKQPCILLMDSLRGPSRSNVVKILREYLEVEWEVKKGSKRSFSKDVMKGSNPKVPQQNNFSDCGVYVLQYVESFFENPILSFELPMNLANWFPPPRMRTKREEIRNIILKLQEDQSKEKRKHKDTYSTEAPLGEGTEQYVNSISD
The experiment in a line: inhibition of human SENP6 catalytic domain – biochemical, luminescence, set 2, SAR follow-up (AID 588598). It counts as functional.

Assay [13] deals with T4, Sentrin-specific protease 8 (Homo sapiens, UniProt Q96LD8).
T4 sequence (Q96LD8 whole entry): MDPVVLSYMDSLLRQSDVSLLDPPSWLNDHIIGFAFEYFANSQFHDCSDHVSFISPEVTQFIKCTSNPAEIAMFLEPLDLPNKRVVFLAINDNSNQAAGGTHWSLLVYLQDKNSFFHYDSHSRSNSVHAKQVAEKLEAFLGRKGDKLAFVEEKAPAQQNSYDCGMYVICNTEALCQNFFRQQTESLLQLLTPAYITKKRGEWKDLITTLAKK
Kind of assay: inhibition of sentrin protease 8 – biochemical, luminescence, set 2, SAR follow-up (AID 588601). It counts as functional.

For assay [14], the target named is T5, Sentrin-specific protease 7 (Homo sapiens, UniProt Q9BQF6).
T5 sequence (Q9BQF6 whole entry): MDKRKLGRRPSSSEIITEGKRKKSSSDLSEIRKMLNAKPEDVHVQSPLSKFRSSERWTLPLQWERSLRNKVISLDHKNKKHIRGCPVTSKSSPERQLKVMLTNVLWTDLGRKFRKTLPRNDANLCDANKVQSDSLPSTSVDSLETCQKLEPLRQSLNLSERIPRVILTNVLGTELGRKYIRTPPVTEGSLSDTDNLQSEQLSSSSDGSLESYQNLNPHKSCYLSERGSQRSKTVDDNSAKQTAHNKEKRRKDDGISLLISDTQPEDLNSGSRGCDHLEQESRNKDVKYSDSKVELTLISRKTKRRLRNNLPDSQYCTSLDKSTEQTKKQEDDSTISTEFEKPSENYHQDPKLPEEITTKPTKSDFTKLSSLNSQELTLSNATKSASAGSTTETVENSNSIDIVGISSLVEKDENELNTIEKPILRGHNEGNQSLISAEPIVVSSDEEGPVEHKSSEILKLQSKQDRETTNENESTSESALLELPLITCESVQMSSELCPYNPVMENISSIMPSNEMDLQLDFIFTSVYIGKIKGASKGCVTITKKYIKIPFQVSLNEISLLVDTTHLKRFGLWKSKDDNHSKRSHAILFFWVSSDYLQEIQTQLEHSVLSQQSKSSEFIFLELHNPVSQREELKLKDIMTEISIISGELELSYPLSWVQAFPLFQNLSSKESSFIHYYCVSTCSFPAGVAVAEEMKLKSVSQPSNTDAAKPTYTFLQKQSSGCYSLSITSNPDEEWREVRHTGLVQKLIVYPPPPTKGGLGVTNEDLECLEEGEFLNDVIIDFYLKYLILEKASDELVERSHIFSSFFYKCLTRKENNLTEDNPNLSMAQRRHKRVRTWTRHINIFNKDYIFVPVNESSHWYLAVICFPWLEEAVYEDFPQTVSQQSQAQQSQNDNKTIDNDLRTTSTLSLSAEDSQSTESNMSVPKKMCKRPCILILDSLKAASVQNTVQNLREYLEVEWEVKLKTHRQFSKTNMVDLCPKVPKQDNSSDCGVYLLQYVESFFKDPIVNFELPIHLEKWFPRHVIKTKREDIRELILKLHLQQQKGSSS
Kind of assay: inhibition of human SENP7 cleavage activity – biochemical, luminescence, set 2, SAR follow-up (AID 588600). It counts as functional.

For the next assay, the system named is INS1. The experiment in a line: INS-1E survival protection against cytokine death – cell-based, luminescence, retest, dose response (AID 449756).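 Note: cell death triggered by IL-1 beta plus TNF-alpha plus IFN-gamma mixture; protective hits raise ATP signal compared with cytokine alone wells.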 In kind it is functional. The settings on record: Rattus norvegicus.
The target of assay [15] is Botulinum neurotoxin type A (Clostridium botulinum (strain Hall / ATCC 3502 / NCTC 13319 / Type A), UniProt P0DPI1). Kind of assay: High-throughput multiplex microsphere dose response for inhibitors of toxin protease, specifically Botulinum neurotoxin light chain A protease, compounds from Cherry Pick 01. It counts as functional. The settings on record: read-out: EC50_MICROM.
Sequence of Botulinum neurotoxin type A (P0DPI1 2-448 limits assumed): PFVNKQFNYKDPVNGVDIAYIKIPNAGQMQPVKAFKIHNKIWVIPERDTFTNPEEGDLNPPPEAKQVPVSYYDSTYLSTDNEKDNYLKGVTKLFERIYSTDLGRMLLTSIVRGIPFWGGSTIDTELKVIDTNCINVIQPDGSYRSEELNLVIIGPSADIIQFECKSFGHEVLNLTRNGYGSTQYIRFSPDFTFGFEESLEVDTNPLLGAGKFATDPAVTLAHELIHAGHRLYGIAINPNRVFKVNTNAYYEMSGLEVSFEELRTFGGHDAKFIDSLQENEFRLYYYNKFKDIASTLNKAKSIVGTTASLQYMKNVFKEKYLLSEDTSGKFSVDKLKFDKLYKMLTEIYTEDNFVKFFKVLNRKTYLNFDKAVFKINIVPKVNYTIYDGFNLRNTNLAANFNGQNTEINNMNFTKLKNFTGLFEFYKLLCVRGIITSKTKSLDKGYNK

Assay [16] can be described thus: microbe, parasite or virus in culture. In kind it is functional. The settings on record: Mycobacterium tuberculosis.
The target in assay [17] is T2, Caspase-3. The experiment in a line: Dose-response confirmation of uHTS inhibitor hits of Sentrin-Specific Protease 8 in a Caspase-3 Fluorescence assay. In kind it is functional.
Assay [18] has as its target T4, Sentrin-specific protease 8. It counts as functional.
Assay [19] has as its target Latent membrane protein 1 (Human herpesvirus 4 (strain B95-8), UniProt P03230). Kind of assay: LMP1 TES1 pathway selectivity over dsRED control – imaging, HEK293T, dual-color eGFP/dsRED, cherry-picks, selectivity assay for LMP1 NF-kB inhibitor project, dose response (AID 588398). It counts as functional, cell-based.
Assay [20] addresses T4, Sentrin-specific protease 8. In kind it is functional. This is another data set of the same source.
Assay [21] is described as follows: bead-based luminescence quenchers, dual-tagged ARNT – biochemical, AlphaScreen, cherry-pick, artefact control for ARNT-TACC3 interaction inhibitor project, dose response (AID 651705).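 Note: AlphaScreen bead proximity signal that flags compounds interfering with the detection technology; potency reflects signal decrease which marks the compound as an assay artifact.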 In kind it is functional. (In general: In Alpha technology, singlet oxygen from a donor bead excites a nearby acceptor bead.)
In assay [22] the target is T6, DNA repair protein RAD52 homolog (Homo sapiens, UniProt P43351).
T6 sequence (P43351 whole entry): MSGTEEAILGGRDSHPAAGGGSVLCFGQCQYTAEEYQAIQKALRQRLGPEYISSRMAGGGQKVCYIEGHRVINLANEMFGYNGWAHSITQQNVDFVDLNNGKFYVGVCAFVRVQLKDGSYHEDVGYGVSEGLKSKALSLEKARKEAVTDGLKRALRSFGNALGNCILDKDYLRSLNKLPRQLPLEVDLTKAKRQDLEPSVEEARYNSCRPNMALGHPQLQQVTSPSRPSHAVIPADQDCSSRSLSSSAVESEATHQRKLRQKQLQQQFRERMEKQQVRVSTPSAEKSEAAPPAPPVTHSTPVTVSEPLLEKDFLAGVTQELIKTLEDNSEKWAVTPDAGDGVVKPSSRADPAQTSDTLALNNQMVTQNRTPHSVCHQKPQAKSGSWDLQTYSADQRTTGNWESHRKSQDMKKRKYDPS
It counts as functional, biochemical.

The target in assay [23] is Glutathione-S-transferase (Schistosoma japonicum, UniProt Q26513). The experiment in a line: GST-antibody interaction or FRET quenching – biochemical, TR-FRET, artefact control for Vif-APOBEC3G degradation inhibitor project, dose response (AID 1117362). It counts as functional. Background: TR-FRET usually uses a lanthanide donor and a delayed reading to cut background.
Sequence of Glutathione-S-transferase (Q26513 whole entry): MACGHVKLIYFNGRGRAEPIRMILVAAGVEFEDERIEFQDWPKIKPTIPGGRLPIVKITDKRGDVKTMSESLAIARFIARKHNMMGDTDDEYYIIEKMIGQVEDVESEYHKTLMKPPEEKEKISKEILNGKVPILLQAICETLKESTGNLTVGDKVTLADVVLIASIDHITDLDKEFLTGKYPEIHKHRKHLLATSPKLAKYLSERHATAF

In the next assay the target is Genome polyprotein (dengue virus type 2, UniProt P29990). Kind of assay: flavivirus cap methylation enzyme inhibition – biochemical, confirmation dose response, primary screen (AID 588689). It counts as functional.
Sequence of Genome polyprotein (P29990 2492-3391 limits assumed): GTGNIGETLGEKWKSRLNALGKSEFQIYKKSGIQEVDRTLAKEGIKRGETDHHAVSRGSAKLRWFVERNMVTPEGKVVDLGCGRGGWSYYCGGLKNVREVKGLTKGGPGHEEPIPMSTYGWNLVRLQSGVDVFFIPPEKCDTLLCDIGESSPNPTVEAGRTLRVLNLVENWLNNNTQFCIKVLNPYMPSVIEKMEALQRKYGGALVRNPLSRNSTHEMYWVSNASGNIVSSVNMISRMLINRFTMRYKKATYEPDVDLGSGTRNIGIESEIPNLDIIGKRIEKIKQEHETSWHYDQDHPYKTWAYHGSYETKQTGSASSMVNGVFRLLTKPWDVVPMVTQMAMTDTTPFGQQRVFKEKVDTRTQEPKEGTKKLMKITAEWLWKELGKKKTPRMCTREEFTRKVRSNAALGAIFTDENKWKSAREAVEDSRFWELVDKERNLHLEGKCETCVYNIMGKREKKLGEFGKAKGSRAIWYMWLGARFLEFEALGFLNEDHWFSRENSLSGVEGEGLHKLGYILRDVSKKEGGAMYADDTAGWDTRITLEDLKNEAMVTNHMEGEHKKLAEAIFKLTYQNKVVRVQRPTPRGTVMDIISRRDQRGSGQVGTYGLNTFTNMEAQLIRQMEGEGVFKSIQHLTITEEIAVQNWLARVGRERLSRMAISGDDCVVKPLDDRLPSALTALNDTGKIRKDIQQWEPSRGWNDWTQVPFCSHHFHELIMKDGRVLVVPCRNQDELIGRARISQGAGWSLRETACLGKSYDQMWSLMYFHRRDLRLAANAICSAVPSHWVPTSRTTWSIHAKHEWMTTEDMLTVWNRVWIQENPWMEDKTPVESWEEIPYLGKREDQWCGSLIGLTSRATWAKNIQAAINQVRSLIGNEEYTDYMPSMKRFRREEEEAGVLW
Assay [24] is described as follows: viability loss in THP-1 monocytes – THP-1 cells, cytotoxicity control for Vif-APOBEC3G degradation inhibitor project, dose response (AID 1117359). It counts as functional. To be noted: THP-1.

This note sets out measurements from ChEMBL document CHEMBL1201862, “PubChem BioAssay data set” (2004).

Active and inactive are the calls of the source.

Sequence of Mitogen-activated protein kinase kinase kinase kinase 4 (O95819 whole entry): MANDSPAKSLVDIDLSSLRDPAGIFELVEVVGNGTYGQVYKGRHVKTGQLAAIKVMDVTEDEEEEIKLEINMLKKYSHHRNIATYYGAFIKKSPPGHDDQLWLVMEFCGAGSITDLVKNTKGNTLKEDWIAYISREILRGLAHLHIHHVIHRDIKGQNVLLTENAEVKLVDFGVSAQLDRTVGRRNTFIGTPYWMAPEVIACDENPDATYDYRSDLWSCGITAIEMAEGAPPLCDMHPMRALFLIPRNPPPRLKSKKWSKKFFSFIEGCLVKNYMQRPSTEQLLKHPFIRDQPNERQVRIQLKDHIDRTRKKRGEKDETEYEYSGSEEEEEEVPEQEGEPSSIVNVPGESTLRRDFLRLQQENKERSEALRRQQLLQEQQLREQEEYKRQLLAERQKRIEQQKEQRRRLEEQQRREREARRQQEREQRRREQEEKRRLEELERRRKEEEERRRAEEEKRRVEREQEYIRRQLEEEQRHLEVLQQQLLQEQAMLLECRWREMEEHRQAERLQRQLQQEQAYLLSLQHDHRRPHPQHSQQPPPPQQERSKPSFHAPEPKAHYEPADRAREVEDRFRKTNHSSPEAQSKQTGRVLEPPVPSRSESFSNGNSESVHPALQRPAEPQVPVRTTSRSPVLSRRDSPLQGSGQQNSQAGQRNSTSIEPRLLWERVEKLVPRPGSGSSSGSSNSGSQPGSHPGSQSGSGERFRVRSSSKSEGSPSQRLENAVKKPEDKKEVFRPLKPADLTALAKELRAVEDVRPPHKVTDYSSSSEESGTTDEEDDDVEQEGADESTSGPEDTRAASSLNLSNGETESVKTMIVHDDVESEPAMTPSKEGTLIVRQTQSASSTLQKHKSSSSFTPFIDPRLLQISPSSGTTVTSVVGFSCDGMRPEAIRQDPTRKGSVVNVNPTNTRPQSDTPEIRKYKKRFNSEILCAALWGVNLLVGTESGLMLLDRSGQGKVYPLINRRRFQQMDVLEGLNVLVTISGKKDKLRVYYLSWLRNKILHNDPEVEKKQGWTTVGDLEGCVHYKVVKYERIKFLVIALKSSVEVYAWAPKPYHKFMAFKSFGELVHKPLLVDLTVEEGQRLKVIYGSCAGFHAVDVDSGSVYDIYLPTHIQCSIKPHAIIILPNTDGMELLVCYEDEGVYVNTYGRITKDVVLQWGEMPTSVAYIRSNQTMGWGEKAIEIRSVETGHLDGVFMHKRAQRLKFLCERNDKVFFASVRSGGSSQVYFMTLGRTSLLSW
Sequence of Latent membrane protein 1 (P03230 whole entry): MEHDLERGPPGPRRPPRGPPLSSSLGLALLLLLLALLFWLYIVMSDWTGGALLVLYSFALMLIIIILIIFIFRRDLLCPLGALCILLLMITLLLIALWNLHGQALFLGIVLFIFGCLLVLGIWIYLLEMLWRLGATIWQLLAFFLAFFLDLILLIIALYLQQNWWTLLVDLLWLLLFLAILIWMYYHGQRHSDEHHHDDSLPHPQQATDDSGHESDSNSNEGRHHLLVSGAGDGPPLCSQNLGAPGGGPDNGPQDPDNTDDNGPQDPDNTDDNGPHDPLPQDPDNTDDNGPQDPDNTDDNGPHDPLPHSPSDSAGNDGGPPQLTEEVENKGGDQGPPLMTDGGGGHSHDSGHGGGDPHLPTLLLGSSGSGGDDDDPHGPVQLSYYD

The Ki is the dissociation constant of the complex between target and ligand, obtained from inhibition or displacement. As for `Cn1cc(-c2ccccc2)c2nc(-c3ccncc3)cc(=O)n21`, the Ki was 0.1 µM (active) in assay [1]; 0.0316 µM (active) in assay [2]; 1.26 µM (active) in assay [3]; 0.126 µM (active) in [4]; > 10 µM (inactive) in assay [5]; > 7.94 µM (inactive) in assay [6]. Besides, the figures for the Ki in [7], in [8] and in assay [9] were 2.51 µM (active), 5.01 µM (active) and 0.0158 µM (active), respectively.
As to `CCCCCCCCC1=NCCc2c1[nH]c1ccccc21`, in assay [10], the EC50 is 13.7 µM (active).
A word on the IC50: it is the concentration at which inhibition is half-maximal. On to `COc1cccc2sc(NC(=O)c3ccc(OCc4nccn4C)cc3)nc12`, for which the IC50 was 89.9 µM (active) at Caspase-3 [11], 77.2 µM (active) in assay [12], 77.4 µM (active) in [13] and > 99 µM (inactive) in [14].
Usually AC50 stands for the midpoint of the concentration-response curve, whichever way the signal moves. On to `O=c1c(Cl)c2oc3ccccc3nc-2c2ccccc12`, for which the AC50 in the assay with INS1 was 2.61 µM (active). For the same molecule, the EC50 in [15] was 12.4 µM (active). The CC50 in assay [16] was > 40 µM (active).
Take `COc1cc(NCCCCCCN)c2ncccc2c1OC`: the IC50 was 4.23 µM (active) at Caspase-3 [17]; 0.208 µM (active) in assay [18]; 0.434 µM (active) in assay [20]; 2.53 µM (active) in [23]; > 100 µM (active) at Genome polyprotein. Moreover, the AC50 is 34.4 µM (active) in assay [19], 132 µM (active) in assay [21] and 0.87 µM (active) in assay [22]. Besides, the CC50 in assay [24] is > 40 µM (active).
